{"source": "patent US12059499B2", "about": "“Liposome loading” (PLUMB PHARMACEUTICALS, INC., priority 2015, dated 2024)", "key": {"[1]": {"conditions": "cited from earlier work"}, "[2]": {"conditions": "partly stated as estimated; cited from earlier work"}, "[3]": {"test": "Liposome leakage, sedimentation method", "type": "physicochemical", "protocol": "Liposome Leakage, Sedimentation Method. Liposome samples were diluted to 3-5 mL and left on an orbital shaker at 22° C. At specific time points, the liposomes were sedimented in a centrifuge at 300×g for 5 minutes and an aliquot of the clear supernatant was analyzed spectrophotometrically for drug and loading base content. After measurement, the solution was returned to the liposome suspension, which was vortexed and returned to the orbital shaker.\nThen, 400 microliters of a pyridinium salt solution (prewarmed to 58° C.) were added to the lipid suspension. The mixture was kept at 58° C. for 5 minutes and then 100 microliters of the pyridinium salt solution were added. […] A total of three washes were performed. […] The samples were subsequently monitored for release of naltrexone using the sedimentation method. Two trials were performed for each condition."}, "[4]": {"test": "Leakage of drug from loaded liposomes, Examples 5 to 8 (method not named)", "conditions": "for leakage of chloroquine from liposomes loaded using this base, compared among three loading bases: adenine triflate, aniline triflate, pyridinium sulfate"}, "[5]": {"conditions": "cited from earlier work", "remark": "listed apart in the source"}, "[6]": {"test": "Liposome leakage, dialysis method", "conditions": "for pyridine leakage from the liposomes: slower after 3 days", "experimental": "A 0.5-mL aliquot of liposome suspension was placed in a section of dialysis tubing tied at one end. The tubing was tied at the other end to form a sealed bag. The bag was placed in 4.5 mL of isotonic NaCl saline solution and placed on an orbital shaker. At specific time points, the dialysis bags were exchanged into fresh isotonic NaCl and the drug and loading base were quantified spectophotometrically in the external dialysis solutions."}, "[7]": {"conditions": "administered orally; cited from earlier work"}, "[8]": {"conditions": "cited from earlier work", "remark": "listed apart in the source"}, "[9]": {"conditions": "1.5 M pyridinium sulfate liposomes"}, "[10]": {"conditions": "liposomes loaded with this pyridinium salt"}}, "note": "Like-named read-outs stand apart in the source and are kept apart here."}
{"molecule": "COc1ccccn1", "note": "[2-methoxypyridine]", "values": [{"measurement": "solubility in water", "setting": "[1]", "result": "limited solubility in water"}, {"measurement": "log P", "setting": "[2]", "result": "approximately 1.3"}]}
{"molecule": "C1=Cc2cccc(OC[C@H]3CNCCO3)c2C1.O=S(=O)(O)c1ccccc1", "note": "[Benzenesulfonate]", "values": [{"measurement": "naltrexone release rate compared with sulfate and eprodisate salts", "setting": "[3]", "result": "higher release rates"}]}
{"molecule": "Cl.c1ccncc1", "note": "[Chloride, pyridinium chloride]", "values": [{"measurement": "release of naltrexone in about 300 hours", "setting": "[3]", "result": 20, "unit": "%"}]}
{"molecule": "CCC(C)O", "note": "(stereo not drawn) [Example 2-butanol, 2-butanol]", "values": [{"measurement": "log P", "setting": "[2]", "result": 0.683}]}
{"molecule": "O=[N+]([O-])O", "note": "[Nitrate]", "values": [{"measurement": "release of naltrexone in 500 hours", "setting": "[3]", "result": "over 70%"}, {"measurement": "release of naltrexone in 860 hours", "setting": "[3]", "result": 90, "unit": "%"}]}
{"molecule": "Nc1ncnc2nc[nH]c12", "note": "[adenine, 6-aminopurine]", "values": [{"measurement": "leakage of chloroquine from liposomes loaded using this base, compared among three loading bases", "setting": "[4]", "result": "least rapid"}, {"measurement": "solubility in water", "setting": "[1]", "result": "very limited solubility in water"}, {"measurement": "pKa", "setting": "[5]", "result": 4.15}]}
{"molecule": "N", "note": "[ammonia, reference compound]", "values": [{"measurement": "log P", "setting": "[2]", "result": "approximately −0.3"}]}
{"molecule": "Nc1ccccc1", "note": "[aniline]", "values": [{"measurement": "leakage of chloroquine from liposomes loaded using this base, compared among three loading bases", "setting": "[4]", "result": "most rapid"}]}
{"molecule": "CCN(CC)CCCC(C)Nc1ccnc2cc(Cl)ccc12", "note": "(stereo not drawn) [chloroquine, reference compound]", "values": [{"measurement": "leakage after 400 hours", "setting": "[4]; DPPC:cholesterol liposomes loaded with a sulfate salt of pyridine", "result": "4-8%"}, {"measurement": "leakage after 400 hours", "setting": "[4]; loaded with the eprodisate salts of both pyridine and 2-methoxypyridine", "result": "≤ 1", "unit": "%"}, {"measurement": "leakage of loaded drug in the first 24 hours", "setting": "[6]; 0.133 M ammonium sulfate gradient liposomes (comparison)", "result": 18, "unit": "%"}]}
{"molecule": "O=C1CC[C@@]2(O)[C@H]3Cc4ccc(O)c5c4[C@@]2(CCN3CC2CC2)[C@H]1O5", "note": "[naltrexone, reference compound]", "values": [{"measurement": "log P", "setting": "[2]", "result": 1.3}, {"measurement": "initial release at 24 hours", "setting": "[3]; [9]", "result": "approximately 4%"}, {"measurement": "liposome contents released in 672 hours", "setting": "[3]; [9]", "result": 20, "unit": "%"}, {"measurement": "release rate", "setting": "[3]; 1.5 M pyridinium sulfate liposomes, over 672 hours", "result": "less than 1 % per day"}, {"measurement": "pKa", "setting": "[5]", "result": 7.3}]}
{"molecule": "NC(=O)c1cccnc1", "note": "[nicotinamide]", "values": [{"measurement": "concentration of solutions of the salt with most strong acids (as concentrated as)", "setting": "[1]; pH 2-3 and room temperature", "result": "≤ 4", "unit": "M"}, {"measurement": "pKa", "setting": "[5]", "result": 3.25}, {"measurement": "oral dose with no toxic effects (as high as)", "setting": "[7]", "result": "≤ 3", "unit": "gm/day"}]}
{"molecule": "CN1CC[C@]23c4c5ccc(O)c4O[C@H]2C(=O)CC[C@@]3(O)[C@H]1C5", "note": "[oxymorphone]", "values": [{"measurement": "release time", "setting": "[8]; animal studies, egg phosphatidylcholine and cholesterol vesicles", "result": "approximately 24 hours"}, {"measurement": "release time", "setting": "[8]; dipalmitoylphosphatidylcholine and cholesterol vesicles", "result": "approximately 72 hours"}]}
{"molecule": "c1ccnnc1", "note": "[pyridazine]", "values": [{"measurement": "solubility in water", "setting": "[1]", "result": "miscible with water at all ratios"}, {"measurement": "log P", "setting": "[2]", "result": "approximately −0.7"}]}
{"molecule": "c1ccncc1", "note": "[pyridine]", "values": [{"measurement": "pyridine leakage from the liposomes", "setting": "[6]; 0.5 M pyridinium sulfate liposomes loaded with 2.5 or 5 μmol chloroquine", "result": "initially very rapid"}, {"measurement": "pyridine loss from liposomes", "setting": "[6]; 0.5 M pyridinium sulfate liposomes loaded with 10 or 20 μmol chloroquine", "result": "minimal"}, {"measurement": "pyridine leakage from the liposomes", "setting": "[6]; 1 M pyridinium chloride liposomes loaded with 2.5 or 5 μmol chloroquine", "result": "initially very rapid"}, {"measurement": "pyridine loss from liposomes", "setting": "[6]; 1 M pyridinium chloride liposomes loaded with 10 or 20 μmol chloroquine", "result": "minimal"}]}
{"molecule": "O=S(=O)(O)CCCS(=O)(=O)O.c1ccncc1.c1ccncc1", "note": "[pyridinium eprodisate]", "values": [{"measurement": "release of naltrexone in 900 hours", "setting": "[3]; [10]", "result": "~5", "unit": "%"}]}
{"molecule": "Methanesulfonate", "values": [{"measurement": "naltrexone release rate compared with sulfate and eprodisate salts", "setting": "[3]; [10]", "result": "higher release rates"}]}
